The subject of the test is diabetes model rats. Put plainly: Renal dysfunction parameters in STZ-induced diabetes model rats (kidney weight, serum creatinine, serum urea nitrogen, MDA in kidney). The test is classed as in vivo, SD rats. How it is done:
To 8 weeks old male SD rats, 50 mg/kg of STZ (streptozotocin, manufactured by Wako Pure Chemical Industries, Ltd.) was intraperitoneally administered, thereby inducing diabetes. The diabetes model rats were divided into four groups: as therapeutic groups, 2,4,4-trimethyl-3(15-hydroxypentadecyl)-2-cyclohexen-1-one ([…]) synthesized by a method described in JP-A-2000-297034 was intraperitoneally administered once a day continuously for 4 or 8 weeks; and as controls, a non-therapeutic group with diabetes alone (Diabetic Control) and a control group without treatment were prepared. After 4 or 8 weeks, serum and both kidneys were removed from the rats. The right kidney was stored in a frozen state and the left kidney was subjected to formalin fixation.
Increase of kidney weight, elevation of serum creatinine level, and increase of MDA in kidney may be observed by renal dysfunction caused by diabetes.

Where [1] appears, read: 2 mg/kg i.p. once a day, 4 weeks after STZ administration.
[2] abbreviates: 2 mg/kg i.p. once a day, 8 weeks after STZ administration.
Setting [3] is: 8 mg/kg i.p. once a day, 4 weeks after STZ administration.
The mark [4] stands for this setting: 8 mg/kg i.p. once a day, 8 weeks after STZ administration.
The mark [5] stands for this setting: 8 mg/kg, eighth week after STZ administration.
Setting [6] is: 8 mg/kg, fourth week after STZ administration.

Regarding `CC1=C(CCCCCCCCCCCCCCCO)C(C)(C)CCC1=O` [Compound 1, 2,4,4-trimethyl-3(15-hydroxypentadecyl)-2-cyclohexen-1-one], the “increase of MDA in kidney (in words)” value by setting is: (2 mg/kg) “markedly suppressed”; (8 mg/kg) “markedly suppressed”. For the same compound, the Serum creatinine under setting [1] is recorded as 2.354 ± 0.254 mg/dL, the Serum creatinine under setting [2] is 2.504 ± 0.253 mg/dL, the Serum creatinine under setting [3] was 1.004 ± 0.118 mg/dL and the Serum creatinine under setting [4] was found to be 1.836 ± 0.228 mg/dL. The Serum urea nitrogen by setting is: under setting [1], 51.00 ± 3.78 mg/dL; under setting [2], 60.78 ± 5.34 mg/dL; under setting [3], 41.76 ± 3.60 mg/dL; under setting [4], 53.69 ± 2.97 mg/dL. In addition, the Weight of kidney under setting [1] turned out to be 1.33 ± 0.05 g, the Weight of kidney under setting [2] is listed as 1.59 ± 0.04 g, the Weight of kidney under setting [3] came out at 1.27 ± 0.07 g and the Weight of kidney under setting [4] came out at 1.33 ± 0.05 g. The “elevation of serum creatinine level (in words)” value by setting is: (4 mg/kg, eighth week after STZ administration) “tendency of the suppression”; under setting [5], “markedly suppressed”; under setting [6], “markedly suppressed”. Moreover, the “increase of kidney weight (in words)” value was “markedly suppressed” under setting [5] and “suppressed” (rats to which the compound was administered, fourth week after STZ administration). The “elevation of serum urea nitrogen (in words)” value under setting [6] is “markedly suppressed”.

Source of the values: patent US20080125495A1, “Ameliorant For Renal Insufficiency” (MEIJI DAIRIES CORPORATION, priority 2004, published 2008).
